Test results as given in patent publication US20180000085A1, “USE OF PICOLINAMIDE COMPOUNDS WITH FUNGICIDAL ACTIVITY” (DOW AGROSCIENCES LLC, priority 2014, published 2018).

Legend:
Zymoseptoria tritici = test: Leaf blotch of wheat (SEPTTR) disease control on wheat seedlings; format: in vivo; design: key to SEPTTR 1DP, HV activity at 100 ppm (% control rating) / SEPTTR 3DC, HV activity at 100 ppm (% control rating) / SEPTTR disease control, 1DP / SEPTTR disease control, 3DC / SEPTTR 1DP disease control rating, HV activity / SEPTTR 3DC disease control rating, HV activity / SEPTTR 3DC, LV activity at 125.1 g/H (% Control rating) / SEPTTR 1DP, LV activity at 125.1 g/H (% Control rating) / SEPTTR 1DP disease control rating, LV activity at 125.1 g/H / SEPTTR 3DC disease control rating, LV activity at 125.1 g/H / SEPTTR 3DC disease control rating, HV activity at 100 ppm / SEPTTR 1DP disease control rating, HV activity at 100 ppm / HV activity at 100 ppm SEPTTR 3DC (disease control rating) / HV activity at 100 ppm SEPTTR 1DP (disease control rating) / LV activity at 125.1 g/H SEPTTR 1DP (disease control rating) / LV activity at 125.1 g/H SEPTTR 3DC (disease control rating): A: > 80; B: ≤ 80; C: Not Tested; D: No Activity Observed in the Reported Assay; conditions: for SEPTTR 1DP disease control rating, LV activity at 125.1 g/H / SEPTTR 1DP disease control rating, HV activity at 100 ppm: 1 day protectant; for SEPTTR 3DC disease control rating, LV activity at 125.1 g/H / SEPTTR 3DC disease control rating, HV activity at 100 ppm: 3 day curative; for LV activity at 125.1 g/H SEPTTR 1DP (disease control rating) / LV activity at 125.1 g/H SEPTTR 3DC (disease control rating) / SEPTTR 1DP disease control rating, HV activity / SEPTTR 3DC disease control rating, HV activity: wheat leaf blotch; for SEPTTR 1DP disease control rating, HV activity at 100 ppm / SEPTTR 3DC disease control rating, HV activity at 100 ppm: high volume application; for SEPTTR 1DP disease control rating, HV activity / SEPTTR 3DC disease control rating, HV activity: HV application at 100 ppm
Puccinia triticina = test: Wheat brown rust (PUCCRT) disease control on wheat seedlings; format: in vivo; design: key to PUCCRT 3DC, HV activity at 100 ppm (% control rating) / PUCCRT disease control, 3DC / PUCCRT 1DP disease control rating, HV activity / PUCCRT 3DC disease control rating, HV activity / PUCCRT 3DC, LV activity at 125.1 g/H (% Control rating) / PUCCRT 1DP, LV activity at 125.1 g/H (% Control rating) / PUCCRT 3DC disease control rating, LV activity at 125.1 g/H / PUCCRT 1DP disease control rating, LV activity at 125.1 g/H / PUCCRT 3DC disease control rating, HV activity at 100 ppm / PUCCRT 1DP disease control rating, HV activity at 100 ppm / HV activity at 100 ppm PUCCRT 3DC (disease control rating) / LV activity at 125.1 g/H PUCCRT 1DP (disease control rating) / LV activity at 125.1 g/H PUCCRT 3DC (disease control rating): A: > 80; B: ≤ 80; C: Not Tested; D: No Activity Observed in the Reported Assay; conditions: for PUCCRT 1DP disease control rating, LV activity at 125.1 g/H / PUCCRT 1DP disease control rating, HV activity at 100 ppm: 1 day protectant; for PUCCRT 3DC disease control rating, LV activity at 125.1 g/H / PUCCRT 3DC disease control rating, HV activity at 100 ppm: 3 day curative; for LV activity at 125.1 g/H PUCCRT 1DP (disease control rating) / LV activity at 125.1 g/H PUCCRT 3DC (disease control rating) / PUCCRT 1DP disease control rating, HV activity / PUCCRT 3DC disease control rating, HV activity: wheat brown rust; for PUCCRT 1DP disease control rating, HV activity at 100 ppm / PUCCRT 3DC disease control rating, HV activity at 100 ppm: high volume application; for PUCCRT 1DP disease control rating, HV activity / PUCCRT 3DC disease control rating, HV activity: HV application at 100 ppm
[1] = low volume application, 125.1 g/H
[2] = low volume application, 125.1 g/H, 1 Day Protectant
[3] = low volume application, 125.1 g/H, 3 Day Curative

CCC(CC)C(Oc1cc(F)cc(Cl)c1)C(C)OC(=O)C(CC(C)C)NC(=O)c1nccc(OC)c1OCOC(C)=O (centres unmarked) [Cmpd 683]
SEPTTR 1DP disease control rating, LV activity at 125.1 g/H (Zymoseptoria tritici; [1]): D | SEPTTR 3DC disease control rating, LV activity at 125.1 g/H (Zymoseptoria tritici; [1]): B (≤ 80) | PUCCRT 1DP disease control rating, LV activity at 125.1 g/H (Puccinia triticina; [1]): D | PUCCRT 3DC disease control rating, LV activity at 125.1 g/H (Puccinia triticina; [1]): D

COc1ccnc(C(=O)N[C@@H](C)C(=O)O[C@@H](C)[C@H](Oc2ccc(C)cc2Cl)C(C)(C)C)c1OC(C)=O [Cmpd 1067]
LV activity at 125.1 g/H SEPTTR 1DP (disease control rating) (Zymoseptoria tritici; [2]): D | LV activity at 125.1 g/H SEPTTR 3DC (disease control rating) (Zymoseptoria tritici; [3]): B (≤ 80) | LV activity at 125.1 g/H PUCCRT 1DP (disease control rating) (Puccinia triticina; [2]): A (> 80) | LV activity at 125.1 g/H PUCCRT 3DC (disease control rating) (Puccinia triticina; [3]): B (≤ 80)

CCC(CC)C(Oc1cc(F)ccc1F)C(C)OC(=O)C(CC(C)C)NC(=O)c1nccc(OC)c1OC(C)=O (centres unmarked) [Cmpd 687]
SEPTTR 1DP disease control rating, LV activity at 125.1 g/H (Zymoseptoria tritici; [1]): D | SEPTTR 3DC disease control rating, LV activity at 125.1 g/H (Zymoseptoria tritici; [1]): B (≤ 80) | PUCCRT 1DP disease control rating, LV activity at 125.1 g/H (Puccinia triticina; [1]): D | PUCCRT 3DC disease control rating, LV activity at 125.1 g/H (Puccinia triticina; [1]): B (≤ 80)

COc1ccnc(C(=O)N[C@@H](C)C(=O)O[C@@H](C)[C@H](Oc2ccc(C)cc2Cl)C(C)(C)C)c1O [Cmpd 1006]
SEPTTR 1DP disease control rating, HV activity at 100 ppm (Zymoseptoria tritici): B (≤ 80) | SEPTTR 3DC disease control rating, HV activity at 100 ppm (Zymoseptoria tritici): B (≤ 80) | PUCCRT 1DP disease control rating, HV activity at 100 ppm (Puccinia triticina): A (> 80) | PUCCRT 3DC disease control rating, HV activity at 100 ppm (Puccinia triticina): A (> 80)

COc1ccnc(C(=O)NC(C)C(=O)OC(C)COCC2CC2)c1OC(C)=O (centres unmarked) [Cmpd 529]
SEPTTR 1DP, LV activity at 125.1 g/H (% Control rating) (Zymoseptoria tritici; [2]): B (≤ 80) | SEPTTR 3DC, LV activity at 125.1 g/H (% Control rating) (Zymoseptoria tritici; [3]): B (≤ 80) | PUCCRT 1DP, LV activity at 125.1 g/H (% Control rating) (Puccinia triticina; [2]): D | PUCCRT 3DC, LV activity at 125.1 g/H (% Control rating) (Puccinia triticina; [3]): D

COc1cccc(O[C@H](C2CCCC2)[C@H](C)OC(=O)[C@H](C)NC(=O)c2nccc(OC)c2O)c1 [Cmpd 847]
SEPTTR 1DP disease control rating, HV activity at 100 ppm (Zymoseptoria tritici): B (≤ 80) | SEPTTR 3DC disease control rating, HV activity at 100 ppm (Zymoseptoria tritici): A (> 80) | PUCCRT 1DP disease control rating, HV activity at 100 ppm (Puccinia triticina): A (> 80) | PUCCRT 3DC disease control rating, HV activity at 100 ppm (Puccinia triticina): A (> 80)

COc1ccnc(C(=O)NC(C)C(=O)OC(C)C(Oc2cccc(-c3ccccc3)c2)C(C)C)c1O (centres unmarked) [Cmpd 389]
SEPTTR 1DP disease control rating, HV activity (Zymoseptoria tritici; 1 Day Protectant): B (≤ 80) | SEPTTR 3DC disease control rating, HV activity (Zymoseptoria tritici; 3 Day Curative): B (≤ 80) | PUCCRT 1DP disease control rating, HV activity (Puccinia triticina; 1 Day Protectant): A (> 80) | PUCCRT 3DC disease control rating, HV activity (Puccinia triticina; 3 Day Curative): D

CC(=O)Oc1cccnc1C(=O)NC(C)C(=O)OC(C)C(Oc1ccccc1)C(C)C (centres unmarked) [Cmpd 678]
SEPTTR 1DP disease control rating, LV activity at 125.1 g/H (Zymoseptoria tritici; [1]): A (> 80) | SEPTTR 3DC disease control rating, LV activity at 125.1 g/H (Zymoseptoria tritici; [1]): B (≤ 80) | PUCCRT 1DP disease control rating, LV activity at 125.1 g/H (Puccinia triticina; [1]): B (≤ 80) | PUCCRT 3DC disease control rating, LV activity at 125.1 g/H (Puccinia triticina; [1]): D

CCCOC(CC)C(Oc1ccccc1)C(C)OC(=O)C(NC(=O)c1nccc(OC)c1OC(C)=O)C(C)CC (centres unmarked) [Cmpd 453]
SEPTTR 1DP disease control rating, HV activity (Zymoseptoria tritici; 1 Day Protectant): B (≤ 80) | SEPTTR 3DC disease control rating, HV activity (Zymoseptoria tritici; 3 Day Curative): B (≤ 80) | PUCCRT 1DP disease control rating, HV activity (Puccinia triticina; 1 Day Protectant): A (> 80) | PUCCRT 3DC disease control rating, HV activity (Puccinia triticina; 3 Day Curative): A (> 80)

COc1ccnc(C(=O)N[C@@H](C)C(=O)O[C@@H](C)COC(C)(C)C)c1O [Cmpd 341]
SEPTTR 1DP disease control rating, HV activity (Zymoseptoria tritici; 1 Day Protectant): B (≤ 80) | SEPTTR 3DC disease control rating, HV activity (Zymoseptoria tritici; 3 Day Curative): B (≤ 80) | PUCCRT 1DP disease control rating, HV activity (Puccinia triticina; 1 Day Protectant): B (≤ 80) | PUCCRT 3DC disease control rating, HV activity (Puccinia triticina; 3 Day Curative): B (≤ 80)

C=CC[C@@H](Oc1cccc(Cl)c1)[C@H](C)OC(=O)[C@H](C)NC(=O)c1nccc(OC)c1OC(C)=O [Cmpd 1079]
LV activity at 125.1 g/H SEPTTR 1DP (disease control rating) (Zymoseptoria tritici; [2]): B (≤ 80) | LV activity at 125.1 g/H SEPTTR 3DC (disease control rating) (Zymoseptoria tritici; [3]): B (≤ 80) | LV activity at 125.1 g/H PUCCRT 1DP (disease control rating) (Puccinia triticina; [2]): A (> 80) | LV activity at 125.1 g/H PUCCRT 3DC (disease control rating) (Puccinia triticina; [3]): A (> 80)
